In ChEMBL document CHEMBL1201862, “PubChem BioAssay data set” (2004):
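In this assay, cells in 96-well plates receive the compound at five concentrations for 48 hours. Endpoints are linearly interpolated between the surrounding concentrations. The concentration for 50% growth inhibition is given as GI50.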 Calls of active or inactive are those of the source. No stated cut-off is given here; in the data, active = GI50 up to about 1.1 µM and inactive = higher.

Assays:
Assay in all cases: growth of human tumour cells (NCI), 48 h
786-0 = tested on: 786-0
MDA-MB-231 = tested on: MDA-MB-231
MDA-N = tested on: MDA-N
NCI-H226 = tested on: NCI-H226
HOP-62 = tested on: HOP-62
HOP-92 = tested on: HOP-92
U-251 = tested on: U-251
SR = tested on: SR
A498 = tested on: A498
MCF7 = tested on: MCF7
RXF 393 = tested on: RXF 393
OVCAR-8 = tested on: OVCAR-8
NCI-H460 = tested on: NCI-H460
OVCAR-5 = tested on: OVCAR-5
UO-31 = tested on: UO-31
UACC-62 = tested on: UACC-62
SK-MEL-2 = tested on: SK-MEL-2
RPMI-8226 = tested on: RPMI-8226
PC-3 = tested on: PC-3
M14 = tested on: M14
SN12C = tested on: SN12C
SF-295 = tested on: SF-295
ACHN = tested on: ACHN
EKVX = tested on: EKVX
SK-MEL-28 = tested on: SK-MEL-28
LOX IMVI = tested on: LOX IMVI
Malme-3M = tested on: Malme-3M
MDA-MB-435 = tested on: MDA-MB-435
HCT-116 = tested on: HCT-116
SNB-75 = tested on: SNB-75
MOLT-4 = tested on: MOLT-4
SK-OV-3 = tested on: SK-OV-3
KM12 = tested on: KM12
HT-29 = tested on: HT-29
SK-MEL-5 = tested on: SK-MEL-5
HL-60 = tested on: HL-60
SW-620 = tested on: SW-620
IGROV-1 = tested on: IGROV-1
NCI-H23 = tested on: NCI-H23
NCI/ADR-RES = tested on: NCI/ADR-RES
K562 = tested on: K562
DU-145 = tested on: DU-145
UACC-257 = tested on: UACC-257
HCT-15 = tested on: HCT-15
SF-539 = tested on: SF-539
CAKI-1 = tested on: CAKI-1
SNB-19 = tested on: SNB-19
SF-268 = tested on: SF-268
A549 = tested on: A549
HCC 2998 = tested on: HCC 2998
OVCAR-4 = tested on: OVCAR-4
NCI-H522 = tested on: NCI-H522
BT-549 = tested on: BT-549
TK-10 = tested on: TK-10
OVCAR-3 = tested on: OVCAR-3
COLO 205 = tested on: COLO 205
CCRF-CEM = tested on: CCRF-CEM

O=c1cc(/N=N/c2ccc(O)cc2)[nH]c(=O)[nH]1
GI50 (786-0): 39.8 µM (inactive) | GI50 (MDA-MB-231): > 100 µM (inactive) | GI50 (MDA-N): > 100 µM (inactive) | GI50 (NCI-H226): > 100 µM (inactive) | GI50 (HOP-62): 62.8 µM (inactive) | GI50 (HOP-92): 96.6 µM (inactive) | GI50 (U-251): 60.8 µM (inactive) | GI50 (SR): > 100 µM (inactive) | GI50 (A498): > 100 µM (inactive) | GI50 (MCF7): > 100 µM (inactive) | GI50 (RXF 393): 42.1 µM (inactive) | GI50 (OVCAR-8): > 100 µM (inactive) | GI50 (NCI-H460): > 100 µM (inactive) | GI50 (OVCAR-5): > 100 µM (inactive) | GI50 (UO-31): > 100 µM (inactive) | GI50 (UACC-62): 60.7 µM (inactive) | GI50 (SK-MEL-2): > 100 µM (inactive) | GI50 (RPMI-8226): > 100 µM (inactive) | GI50 (PC-3): > 100 µM (inactive) | GI50 (M14): > 100 µM (inactive) | GI50 (SN12C): 66.7 µM (inactive) | GI50 (SF-295): > 100 µM (inactive) | GI50 (ACHN): > 100 µM (inactive) | GI50 (EKVX): > 100 µM (inactive) | GI50 (SK-MEL-28): > 100 µM (inactive) | GI50 (LOX IMVI): 79.6 µM (inactive) | GI50 (Malme-3M): 28.8 µM (inactive) | GI50 (MDA-MB-435): > 100 µM (inactive) | GI50 (HCT-116): > 100 µM (inactive) | GI50 (SNB-75): 26.6 µM (inactive) | GI50 (MOLT-4): > 100 µM (inactive) | GI50 (SK-OV-3): > 100 µM (inactive) | GI50 (KM12): 16.9 µM (inactive) | GI50 (HT-29): 67.8 µM (inactive) | GI50 (SK-MEL-5): > 100 µM (inactive) | GI50 (HL-60): > 100 µM (inactive) | GI50 (SW-620): > 100 µM (inactive) | GI50 (IGROV-1): > 100 µM (inactive) | GI50 (NCI-H23): > 100 µM (inactive) | GI50 (NCI/ADR-RES): > 100 µM (inactive) | GI50 (K562): > 100 µM (inactive) | GI50 (DU-145): > 100 µM (inactive) | GI50 (UACC-257): 73.1 µM (inactive) | GI50 (HCT-15): > 100 µM | GI50 (SF-539): 53.5 µM (inactive) | GI50 (CAKI-1): > 100 µM (inactive) | GI50 (SNB-19): > 100 µM (inactive) | GI50 (SF-268): 40.5 µM (inactive) | GI50 (A549): > 100 µM (inactive) | GI50 (HCC 2998): 29.7 µM (inactive) | GI50 (OVCAR-4): > 100 µM (inactive) | GI50 (NCI-H522): 31.7 µM (inactive) | GI50 (BT-549): > 100 µM (inactive) | GI50 (TK-10): 99.3 µM (inactive) | GI50 (OVCAR-3): 40.7 µM (inactive) | GI50 (COLO 205): > 100 µM (inactive)

COC(=O)C([C@H]1CC[C@H](OCc2ccccc2)[C@@]1(O)COCc1ccccc1)C(C)(O)CCc1ccccc1 (stereo not given in full)
GI50 (786-0): 12.9 µM (inactive) | GI50 (MDA-MB-231): 12 µM (inactive) | GI50 (MDA-N): 13.1 µM (inactive) | GI50 (NCI-H226): 11.8 µM (inactive) | GI50 (HOP-62): 15.2 µM (inactive) | GI50 (U-251): 11.6 µM (inactive) | GI50 (SR): 5.43 µM (inactive) | GI50 (A498): 15 µM (inactive) | GI50 (MCF7): 10.1 µM (inactive) | GI50 (RXF 393): 10.4 µM (inactive) | GI50 (OVCAR-8): 13.4 µM (inactive) | GI50 (OVCAR-5): 13.5 µM (inactive) | GI50 (UO-31): 10.7 µM (inactive) | GI50 (UACC-62): 13.2 µM (inactive) | GI50 (SK-MEL-2): 12.2 µM (inactive) | GI50 (RPMI-8226): 9.89 µM (inactive) | GI50 (PC-3): 4.13 µM (inactive) | GI50 (M14): 10.6 µM (inactive) | GI50 (SN12C): 5.13 µM (inactive) | GI50 (SF-295): 8.41 µM (inactive) | GI50 (ACHN): 12.5 µM (inactive) | GI50 (EKVX): 8.57 µM (inactive) | GI50 (SK-MEL-28): 15.3 µM (inactive) | GI50 (LOX IMVI): 8.47 µM (inactive) | GI50 (Malme-3M): 11.5 µM (inactive) | GI50 (MDA-MB-435): 14.4 µM (inactive) | GI50 (HCT-116): 10.7 µM (inactive) | GI50 (SNB-75): 2.07 µM (inactive) | GI50 (MOLT-4): 3.63 µM (inactive) | GI50 (SK-OV-3): 27.1 µM (inactive) | GI50 (KM12): 3.32 µM (inactive) | GI50 (HT-29): 4.55 µM (inactive) | GI50 (SK-MEL-5): 14.1 µM (inactive) | GI50 (SW-620): 13.5 µM (inactive) | GI50 (IGROV-1): 10.9 µM (inactive) | GI50 (CCRF-CEM): 6.92 µM (inactive) | GI50 (NCI-H23): 15.4 µM (inactive) | GI50 (NCI/ADR-RES): 4.06 µM (inactive) | GI50 (K562): 8.15 µM (inactive) | GI50 (DU-145): 24.2 µM (inactive) | GI50 (UACC-257): 13.8 µM (inactive) | GI50 (HCT-15): 13.5 µM | GI50 (SF-539): 15.4 µM (inactive) | GI50 (CAKI-1): 57.9 µM (inactive) | GI50 (SNB-19): 26.5 µM (inactive) | GI50 (SF-268): 4.01 µM (inactive) | GI50 (A549): 6.71 µM (inactive) | GI50 (HCC 2998): 14 µM (inactive) | GI50 (OVCAR-4): 17.1 µM (inactive) | GI50 (NCI-H522): 8.07 µM (inactive) | GI50 (BT-549): 16.7 µM (inactive) | GI50 (TK-10): 17.1 µM (inactive) | GI50 (OVCAR-3): 12.7 µM (inactive) | GI50 (COLO 205): 12.2 µM (inactive)

CC1C(=O)C(C)C(c2ccccc2)N(C)C1c1ccccc1 (stereo not given)
GI50 (SR): 32.3 µM (inactive) | GI50 (OVCAR-5): 63.8 µM (inactive) | GI50 (MOLT-4): 34.5 µM (inactive) | GI50 (HT-29): 47.6 µM (inactive) | GI50 (HL-60): 39.8 µM (inactive)
